Format in all cases: biochemical
In assay [1] the target is T1, TEC (Homo sapiens, UniProt P42680).
T1 sequence (P42680 1-631): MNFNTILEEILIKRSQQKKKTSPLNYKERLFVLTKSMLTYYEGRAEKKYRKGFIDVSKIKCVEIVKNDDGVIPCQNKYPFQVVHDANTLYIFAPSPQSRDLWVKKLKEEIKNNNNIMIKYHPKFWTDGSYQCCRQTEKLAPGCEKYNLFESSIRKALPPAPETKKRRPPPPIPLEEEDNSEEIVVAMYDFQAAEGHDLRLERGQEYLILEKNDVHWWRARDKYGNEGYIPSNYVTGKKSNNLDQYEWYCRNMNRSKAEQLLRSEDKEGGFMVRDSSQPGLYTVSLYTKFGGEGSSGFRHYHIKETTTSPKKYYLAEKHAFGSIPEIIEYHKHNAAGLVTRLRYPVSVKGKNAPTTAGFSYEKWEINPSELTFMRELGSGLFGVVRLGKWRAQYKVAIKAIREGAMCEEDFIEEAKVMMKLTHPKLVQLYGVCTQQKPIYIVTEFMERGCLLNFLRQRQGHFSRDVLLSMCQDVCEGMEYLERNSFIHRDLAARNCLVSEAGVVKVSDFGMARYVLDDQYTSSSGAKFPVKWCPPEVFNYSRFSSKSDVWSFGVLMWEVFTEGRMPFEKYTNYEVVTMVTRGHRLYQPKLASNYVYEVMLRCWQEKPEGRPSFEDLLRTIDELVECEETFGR
Description: Inhibition of a panel of kinases (in vitro HotSpot kinase assay, 33P-ATP, 1 μM ATP). The following applies: for IC50: HotSpot kinase assay, 1 μM ATP; for TEC/Btk: ratio of TEC IC50 to Btk IC50 (selectivity). In a few lines:
(§1)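 Purified kinase enzymes were incubated with an appropriate substrate and 33P-labelled ATP at 1 μM ATP. Inhibition was measured radiometrically from incorporation of the 33P label.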

Assay [2] addresses T2, Btk (Homo sapiens, UniProt Q06187).
T2 construct: purified from insect cells as a full-length construct containing a N-terminal 6X-His tag; His6 (N); made in house; host or cells: insect cells (Method C)
Description: Btk in vitro inhibitory activity (one of Method A TR-FRET, Method B electrophoretic mobility shift, Method C radiometric filter binding). The following applies: wild-type Btk; read-out: Btk-WT IC50. The procedure, abridged: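 Method A: TR-FRET with 0.5 nM Btk at [ATP]=Km, EDTA-quenched, 665/615 nm ratio; Ki(app) converted to IC50. Method B: 1 nM full-length His6 human BTK, 1 μM FAM peptide, pH 7.5, mobility-shift product/sum ratio, 12-point 4-parameter fit. Method C: radiometric filter binding, 8 nM His-tagged BTK, 0.2 mg/mL poly-Glu-Tyr.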
For orientation: Mobility shift assays separate free from complexed probe on a gel.

The target in assay [3] is T3, panel of kinases (Homo sapiens, UniProt P51813).
T3 sequence (P51813 1-675): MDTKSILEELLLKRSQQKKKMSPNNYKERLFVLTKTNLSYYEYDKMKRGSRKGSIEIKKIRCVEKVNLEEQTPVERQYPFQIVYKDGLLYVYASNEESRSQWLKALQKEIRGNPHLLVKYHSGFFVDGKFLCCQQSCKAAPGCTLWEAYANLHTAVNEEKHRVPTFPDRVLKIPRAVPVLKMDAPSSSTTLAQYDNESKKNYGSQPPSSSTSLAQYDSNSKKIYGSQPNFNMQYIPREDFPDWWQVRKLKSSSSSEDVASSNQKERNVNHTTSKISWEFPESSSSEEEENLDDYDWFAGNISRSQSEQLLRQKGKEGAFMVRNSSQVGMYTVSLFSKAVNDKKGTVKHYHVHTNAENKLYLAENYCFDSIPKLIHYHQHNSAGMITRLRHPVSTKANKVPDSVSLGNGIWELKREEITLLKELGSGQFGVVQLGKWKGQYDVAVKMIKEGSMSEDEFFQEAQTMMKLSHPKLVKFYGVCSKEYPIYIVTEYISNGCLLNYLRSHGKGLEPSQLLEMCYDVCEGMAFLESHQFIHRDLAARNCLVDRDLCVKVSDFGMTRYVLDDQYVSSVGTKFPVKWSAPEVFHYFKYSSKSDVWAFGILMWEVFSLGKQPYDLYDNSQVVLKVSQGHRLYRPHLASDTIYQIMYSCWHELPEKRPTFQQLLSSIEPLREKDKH
Nature of the assay: Inhibition of a panel of kinases (in vitro HotSpot kinase assay, 33P-ATP, 1 μM ATP), other kinases. The following applies: BMX wild-type, read-out: BMX-WT IC50. In a few lines:
as §1

From patent publication US20180194762A1 (Pharmacyclics LLC, priority 2017, published 2018) come the findings set out here.

Each structure is given as a SMILES string.

T2 sequence (Q06187 whole entry): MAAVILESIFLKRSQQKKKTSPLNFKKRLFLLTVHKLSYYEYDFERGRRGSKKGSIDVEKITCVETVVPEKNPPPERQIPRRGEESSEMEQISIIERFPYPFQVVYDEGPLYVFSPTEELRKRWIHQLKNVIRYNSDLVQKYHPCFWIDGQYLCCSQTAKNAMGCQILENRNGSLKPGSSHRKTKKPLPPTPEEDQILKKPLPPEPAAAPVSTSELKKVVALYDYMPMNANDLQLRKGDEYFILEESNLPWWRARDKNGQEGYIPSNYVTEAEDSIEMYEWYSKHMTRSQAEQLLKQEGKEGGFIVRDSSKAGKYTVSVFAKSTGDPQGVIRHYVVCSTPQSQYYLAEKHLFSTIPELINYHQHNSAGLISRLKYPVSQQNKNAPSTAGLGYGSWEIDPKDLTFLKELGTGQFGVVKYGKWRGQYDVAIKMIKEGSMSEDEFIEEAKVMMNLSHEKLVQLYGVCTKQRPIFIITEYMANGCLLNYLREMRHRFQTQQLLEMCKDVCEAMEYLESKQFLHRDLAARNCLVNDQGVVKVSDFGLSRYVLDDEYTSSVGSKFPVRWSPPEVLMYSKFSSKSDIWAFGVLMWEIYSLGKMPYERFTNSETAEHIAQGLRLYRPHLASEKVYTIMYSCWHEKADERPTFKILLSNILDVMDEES

On to `C=CC(=O)N1CC[C@@H](Nc2n[nH]c3nccc(-c4cccc(-n5ccc6cc(C7CC7)cc(F)c6c5=O)c4CO)c23)C1` [Compound 18, 6-cyclopropyl-8-fluoro-2-[2-(hydroxymethyl)-3-(3-{[(3R)-1-(prop-2-enoyl)pyrrolidin-3-yl]amino}-1H-pyrazolo[3,4-b]pyridin-4-yl)phenyl]-1,2-dihydroisoquinolin-1-one], for which the results for the half-maximal inhibitory concentration (IC50) in assay [1], in assay [2] and in assay [3] were 40 nM, 1.69 nM and 73 nM, respectively. Besides, in assay [1], the TEC/Btk was 23.

Turning to `CN(C)C(=O)N1CC[C@@H](Nc2n[nH]c3nccc(-c4ccc(CNC(=O)c5coc(C(C)(C)C)n5)c(F)c4)c23)C1` [Example 296, 2-tert-butyl-N-{[4-(3-{[(3R)-1-(dimethylcarbamoyl)pyrroli-din-3-yl]amino}-1H-pyrazolo[3,4-b]pyridin-4-yl)-2-fluorophenyl]methyl}-1,3-oxazole-4-carboxamide], the values for the half-inhibitory concentration (IC50) in assay [1], in assay [2] and in assay [3] were 1650 nM, 8.97 nM and 4690 nM, respectively.

With `CC(C)(C)c1noc(C(=O)NCc2ccc(-c3ccnc4[nH]nc(N5CCC(N)C5)c34)cc2F)n1` (centres unmarked) [Example 330, N-({4-[3-(3-aminopyrrolidin-1-yl)-1H-pyrazolo[3,4-b]pyridin-4-yl]-2-fluorophenyl}methyl)-3-tert-butyl-1,2,4-oxadiazole-5-carboxamide], the 50% inhibitory concentration (IC50) was found to be 1320 nM in assay [1], 0.626 nM in assay [2] and 1230 nM in assay [3].

`C=CC(=O)N1CC[C@@H](Nc2n[nH]c3nccc(-c4cccc(NC(=O)c5noc(C(C)(C)C)n5)c4C)c23)C1` [Example 267, 5-tert-butyl-N-[2-methyl-3-(3-{[(3R)-1-(prop-2-enoyl)pyrrolidin-3-yl]amino}-1H-pyrazolo[3,4-b]pyridin-4-yl)phenyl]-1,2,4-oxadiazole-3-carboxamide]: the figures for the IC50 in assay [1], in assay [2] and in assay [3] were 901 nM, 164 nM and 553 nM, respectively. In assay [1], the TEC/Btk amounted to 005.

For `CN1CCCN([C@@H]2CCN(c3n[nH]c4nccc(-c5ccc(CNC(=O)c6noc(C(C)(C)C)n6)c(F)c5)c34)C2)C1=O` [Example 250, 5-tert-butyl-N-[(2-fluoro-4-{3-[(3R)-3-(3-methyl-2-oxo-1,3-diazinan-1-yl)pyrrolidin-1-yl]-1H-pyrazolo[3,4-b]pyridin-4-yl}phenyl)methyl]-1,2,4-oxadiazole-3-carboxamide], the IC50 in assay [1] worked out at 6920 nM; in assay [2] it was 11.7 nM; in assay [3] it was 8370 nM. The TEC/Btk in assay [1] came out at 591.

Consider `CC(C)(C)c1cc(C(=O)NCc2ccc(-c3ccnc4[nH]nc(N5CC[C@@H](N)C5)c34)cc2F)no1` [Example 307, (R)-N-({4-[3-(3-aminopyrrolidin-1-yl)-1H-pyrazolo[3,4-b]pyridin-4-yl]-2-fluorophenyl}methyl)-5-tert-butyl-1,2-oxazole-3-carboxamide], for which the values for the half-maximal inhibitory concentration (IC50) in assay [1], in assay [2] and in assay [3] were 3210 nM, 3.33 nM and 1420 nM, respectively.

`C=CC(=O)N1CC[C@@H](Nc2n[nH]c3nccc(-c4ccc(CNC(=O)c5ccc6sc(C)nc6c5)c(F)c4)c23)C1` [Example 378, N-{[2-fluoro-4-(3-{[(3R)-1-(prop-2-enoyl)pyrrolidin-3-yl]amino}-1H-pyrazolo[3,4-b]pyridin-4-yl)phenyl]methyl}-2-methyl-1,3-benzothiazole-5-carboxamide]: the results for the concentration for half-maximal inhibition (IC50) in assay [1], in assay [2] and in assay [3] were 278 nM, 6.54 nM and 69.2 nM, respectively.

With `C=CC(=O)N1CC[C@@H](Nc2n[nH]c3nccc(-c4ccc(CNC(=O)c5ccc(C(F)(F)F)cc5)c(F)c4)c23)C1` [Compound 48, (R)—N-(4-(3-((1-acryloylpyrrolidin-3-yl)amino)-1H-pyrazolo[3,4-b]pyridin-4-yl)-2-fluorobenzyl)-4-(trifluoromethyl)benzamide], the IC50 in assay [1] was 65 nM; in assay [2] it was 0.798 nM; in assay [3] it was 46 nM. Besides, in assay [1], the TEC/Btk came out at 81.

As for `CCNC(=O)N1C[C@H](Nc2n[nH]c3nccc(-c4ccc(CNC(=O)c5nc(C(C)(C)C)no5)c(F)c4)c23)CC[C@@H]1C` [Example 209, (2S,5R)-5-{[4-(4-{[(3-tert-butyl-1,2,4-oxadiazole-5-carbonyl)amino]methyl}-3-fluorophenyl)-1H-pyrazolo[3,4-b]pyridin-3-yl]amino}-N-ethyl-2-methylpiperidine-1-carboxamide], the IC50 turned out to be 905 nM in assay [1], 1.26 nM in assay [2] and 2200 nM in assay [3]. Also, the TEC/Btk in assay [1] is listed as 718.

As to `C=CC(=O)N[C@@H]1CCN(c2n[nH]c3nccc(-c4ccc(CN(C)C(=O)c5nc(C(C)(C)C)no5)c(F)c4)c23)C1` [Example 335, 3-tert-butyl-N-{[2-fluoro-4-(3-{(3R)-3-[(prop-2-enoyl)amino]pyrrolidin-1-yl}-1H-pyrazolo[3,4-b]pyridin-4-yl)phenyl]methyl}-N-methyl-1,2,4-oxadiazole-5-carboxamide], the IC50 in assay [1] turned out to be 57.7 nM; in assay [2], 0.0513 nM; in assay [3], 61.3 nM.

Turning to `CC(C)(C)c1nc(C(=O)NCc2ccc(-c3ccnc4[nH]nc(N[C@@H]5CCCNC5)c34)cc2F)no1` [Example 69, 5-tert-butyl-N-{[2-fluoro-4-(3-{[(3R)-piperidin-3-yl]amino}-1H-pyrazolo[3,4-b]pyridin-4-yl)phenyl]methyl}-1,2,4-oxadiazole-3-carboxamide], the IC50 in assay [1] is 4510 nM; in assay [2] it was 10.4 nM; in assay [3] it was 6970 nM. Further, the TEC/Btk in assay [1] is 434.

For `CCc1cc(C(=O)NCc2ccc(-c3ccnc4[nH]nc(N[C@@H]5CCCN[C@@H]5C)c34)cc2F)no1` [Example 170, 5-ethyl-N-{[2-fluoro-4-(3-{[(2R,3R)-2-methylpiperidin-3-yl]amino}-1H-pyrazolo[3,4-b]pyridin-4-yl)phenyl]methyl}-1,2-oxazole-3-carboxamide], the half-inhibitory concentration (IC50) in assay [1], in assay [2] and in assay [3] was more than 10000 nM throughout.

For the compound `CC(C)(C)c1noc(C(=O)NCc2ccc(-c3ccnc4[nH]nc(N5CCC(NC(=O)C6CC6)CC5)c34)cc2F)n1` [Example 207, 3-tert-butyl-N-{[4-(3-{4-[(cyclopropanecarbonyl)amino]piperidin-1-yl}-1H-pyrazolo[3,4-b]pyridin-4-yl)-2-fluorophenyl]methyl}-1,2,4-oxadiazole-5-carboxamide], the results for the half-inhibitory concentration (IC50) in assay [1], in assay [2] and in assay [3] were 815 nM, 0.375 nM and 1220 nM, respectively. The TEC/Btk in assay [1] was 2173.

On to `COC(=O)N1C[C@H](Nc2n[nH]c3nccc(-c4ccc(CNC(=O)c5noc(C(C)(C)C)n5)c(F)c4)c23)CC[C@@H]1C` [Example 226, methyl (2S,5R)-5-{[4-(4-{[(5-tert-butyl-1,2,4-oxadiazole-3-carbonyl)amino]methyl}-3-fluorophenyl)-1H-pyrazolo[3,4-b]pyridin-3-yl]amino}-2-methylpiperidine-1-carboxylate], for which the IC50 in assay [1] was 1370 nM; in assay [2], 1.48 nM; in assay [3], 2110 nM. Moreover, the TEC/Btk in assay [1] was 926.

In general, IC50 refers to the point on the concentration scale where inhibition reaches its midpoint.
